From ChEMBL document CHEMBL5550136, “Total synthesis/semi-synthesis of natural isopentenyl flavonoids with inhibitory activity on NLRP3 inflammasome” (Bioorg Med Chem Lett, 2024) come the findings set out here.

Assay [1] deals with NACHT, LRR and PYD domains-containing protein 3 (Mus musculus, UniProt Q8R4B8). As to the kind of experiment: Inhibition of NLRP3 inflammasome activation in mouse BMDM cells assessed as reduction in IL-1beta release by ELISA. In kind it is cell-based. Background: An ELISA detects its analyte on a solid surface through an enzyme-linked reagent.
Assay [2] deals with BMDM. Kind of assay: Effect on NLRP3 protein expression in mouse BMDM cells. Format: functional, cell-based.
For assay [3], the target named is NACHT, LRR and PYD domains-containing protein 3 (Mus musculus) (UniProt Q8R4B8). Kind of assay: Inhibition of NLRP3 inflammasome activation in mouse BMDM cells assessed as inhibition of caspase-1 release by immunoblotting analysis. In kind it is cell-based. A general note: In western blotting, separated proteins are transferred to a membrane and probed.
For assay [4], the system named is BMDM. As to the kind of experiment: Effect on pro-caspase-1 protein expression in mouse BMDM cells. In kind it is functional, cell-based.
In assay [5] the target is NACHT, LRR and PYD domains-containing protein 3 (Mus musculus) (UniProt Q8R4B8). Kind of assay: Inhibition of NLRP3 inflammasome activation in mouse BMDM cells assessed as inhibition of mature IL-1beta release by immunoblotting analysis. In kind it is cell-based.
Assay [6] concerns BMDM. As to the kind of experiment: Effect on pro-IL-1beta protein expression in mouse BMDM cells. In kind it is functional, cell-based.

The source made the active and inactive calls. The rule behind the calls is not given here.

NACHT, LRR and PYD domains-containing protein 3, sequence (Q8R4B8 whole entry, the tested form may be a part): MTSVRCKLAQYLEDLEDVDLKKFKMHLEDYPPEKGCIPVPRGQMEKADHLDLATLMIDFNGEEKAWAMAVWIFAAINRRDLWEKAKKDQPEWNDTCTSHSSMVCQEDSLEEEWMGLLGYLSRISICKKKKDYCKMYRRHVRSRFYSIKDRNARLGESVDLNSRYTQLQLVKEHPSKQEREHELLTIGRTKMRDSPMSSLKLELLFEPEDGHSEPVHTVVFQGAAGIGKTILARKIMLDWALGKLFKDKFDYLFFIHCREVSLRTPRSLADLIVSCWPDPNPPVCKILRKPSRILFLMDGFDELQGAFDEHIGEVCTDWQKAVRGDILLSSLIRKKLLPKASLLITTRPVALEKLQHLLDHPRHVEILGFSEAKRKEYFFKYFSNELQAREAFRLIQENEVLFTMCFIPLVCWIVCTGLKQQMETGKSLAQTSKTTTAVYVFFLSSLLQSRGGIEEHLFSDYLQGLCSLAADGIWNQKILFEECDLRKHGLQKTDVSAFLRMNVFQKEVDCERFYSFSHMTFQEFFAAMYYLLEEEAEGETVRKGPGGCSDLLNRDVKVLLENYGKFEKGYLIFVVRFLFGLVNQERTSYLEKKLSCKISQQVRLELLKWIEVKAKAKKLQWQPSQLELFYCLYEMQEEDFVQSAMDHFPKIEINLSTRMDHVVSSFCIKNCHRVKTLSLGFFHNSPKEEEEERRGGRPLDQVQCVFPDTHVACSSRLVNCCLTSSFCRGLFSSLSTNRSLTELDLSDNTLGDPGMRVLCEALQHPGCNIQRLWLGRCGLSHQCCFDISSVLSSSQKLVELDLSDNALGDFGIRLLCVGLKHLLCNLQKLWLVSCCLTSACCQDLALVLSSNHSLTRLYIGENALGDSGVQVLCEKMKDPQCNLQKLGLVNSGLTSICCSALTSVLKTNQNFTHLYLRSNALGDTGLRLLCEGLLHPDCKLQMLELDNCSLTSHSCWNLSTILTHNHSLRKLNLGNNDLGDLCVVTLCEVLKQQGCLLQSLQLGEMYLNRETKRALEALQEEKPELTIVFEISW
NACHT, LRR and PYD domains-containing protein 3 (Mus musculus), sequence (Q8R4B8 whole entry, the tested form may be a part): as above

One may read the IC50 as the midpoint of a concentration-inhibition curve. Regarding `COc1cc(-c2cc(=O)c3c(O)cc4c(c3o2)C=CC(C)(C)O4)ccc1O`, the IC50 in assay [1] is over 100 µM.
On the same count and under the same terms, under `CC(C)=CCc1c(O)cc2oc(-c3ccc(O)cc3)c(O)c(=O)c2c1O` [LICOFLAVONOL] stands 8.5 µM; under `COc1cc(C2CC(=O)c3c(O)cc(O)c(CC=C(C)C)c3O2)c(O)cc1O` (stereo not given) [KUSHENOL W], 17.3 µM; under `CC(C)=CCc1c(O)cc2oc(-c3ccc(O)c(O)c3)c(O)c(=O)c2c1O` [GANCAONIN P], 20.4 µM.
The same measure, in the same setting: under `O=c1c(O)c(-c2ccc(O)c(O)c2)oc2cc(O)cc(O)c12` [QUERCETIN] stands 37.1 µM.
`COc1ccc(-c2cc(=O)c3c(O)cc4c(c3o2)C=CC(C)(C)O4)cc1`: the IC50 in assay [1] was over 100 µM.
On the same count and under the same terms, to `COc1ccc(-c2cc(=O)c3c(O)cc(O)c(CC=C(C)C)c3o2)cc1` belongs 11.4 µM.
With `CC(C)=CCC/C(C)=C/Cc1c(O)cc2oc(-c3ccc(O)cc3)c(O)c(=O)c2c1O` [MACARANGIN], the outcome in the assay on BMDM [2], in the assay on BMDM [4] and with BMDM [6] was inactive. For the same compound, the inhibition entry in assay [3] and in assay [5] was “Dose-Dependent Effect” throughout. Moreover, the IC50 in assay [1] amounted to 3.4 µM.
On to `O=c1c(O)c(-c2ccc(O)cc2)oc2cc(O)cc(O)c12` [KAEMPFEROL], for which the IC50 in assay [1] was over 100 µM.
On the same count and under the same terms, under `COc1cc(-c2cc(=O)c3c(O)cc(O)c(CC=C(C)C)c3o2)ccc1O` stands 41.2 µM.
